Assay results from US7030157B2, “Pharmaceutical compositions, kits and methods comprising combinations of estrogen agonists/antagonists, estrogens and progestins” (priority 2001, dated 2006).
Entries after “also recorded” stand apart in the source; their conditions may differ.

Tests used:
[1] = tested on: OVX-induced bone resorption and bone turnover; experiment: Dynamic histomorphometry of the proximal tibial metaphysis in OVX rats; assay type: in vivo, Sprague-Dawley female rats; settings: daily gavage 28 days, EE 0.03 mg/kg, LAS 0.1 mg/kg
Procedure: (§1) Sprague-Dawley female rats at 5.5 months of age were used in this study. Rats underwent either sham-operation or bilateral ovariectomy. Beginning at 1 day post-surgery, the rats were treated (daily gavage) with vehicle, 17α-ethanyl estradiol (EE) alone, lasofoxifene (LAS) alone, or combination of both EE and LAS for 28 days, according to the following protocol.
(§2) There were 10 rats in each group. All rats received subcutaneous injections of the fluorescent marker, calcein, at 10 mg/kg on days 12 and 2 before necropsy in order to determine dynamic bone changes. After 28 days of treatment, the rats were necropsy, and the following endpoints were determined. • Body weight • Total serum cholesterol (TSC) • Uterine wet weight • Peripheral quantitative computerized tomography (pQCT). A pQCT X-ray machine (Stratec XCT Reasearch M, Norland Medical Systems, Fort Atkinson, Wis.) with version 5.40 was used to scan femurs from this study. A cross sectional slice 1 mm in thickness was taken of the femoral metaphysis approximately 5 mm proximal to the distal end. A voxel size of 0.10 mm was used, with dimensions of 100×100×1000 micometers. Cortical bone was defined and analyzed using contour mode 2 and cortical mode 4. The cortical shell was distinguished from soft tissue with an outer threshold setting of 349 mg/cm^3. Furthermore, cortical bone along the endocortical surface was determined with an inner threshold of 529 mg/cm^3. In order to determine the presence of trabecular bone, peel mode 4 was used. (Sub)Cortical bone was distinguished from cancellous bone with a threshold setting of 655 mg/cm^3. An additional concentric peel was also used to eliminate (sub)cortical bone from any analyses. For trabecular and cortical bone, content, density and area were determined. […] Tibiae were removed upon necropsy and removed of tissue. The proximal portion of the tibia was fixed in 70% ethanol, dehydrated in graded concentrations of ethanol, defatted in acetone, and embedded in methyl methacrylate. Four and ten μm sections were taken to determine several histomorphometric parameters with an Image Analysis System (Osteomeasure, Inc., Atlanta, Ga.). The 10 μm remained unstained while the 4 μm section was stained with modified Masson's Trichrome stain (5,6,7). Statistics
(§3) Statistics were calculated using StatView 4.0 software (Abacus Concepts, Inc., Berkeley, Calif.). Fisher's PLSD was used to determine the differences between each group. A p value<0.05 was considered a significant difference.

[2] = Total serum cholesterol (TSC) in OVX rats; assay type: in vivo, Sprague-Dawley female rats; settings: daily gavage 28 days, EE 0.03 mg/kg, LAS 0.1 mg/kg
Procedure: as §1
(§4) There were 10 rats in each group. All rats received subcutaneous injections of the fluorescent marker, calcein, at 10 mg/kg on days 12 and 2 before necropsy in order to determine dynamic bone changes. After 28 days of treatment, the rats were necropsy, and the following endpoints were determined. • Body weight • Total serum cholesterol (TSC) • Uterine wet weight • Peripheral quantitative computerized tomography (pQCT). A pQCT X-ray machine (Stratec XCT Reasearch M, Norland Medical Systems, Fort Atkinson, Wis.) with version 5.40 was used to scan femurs from this study. […] Cortical bone was defined and analyzed using contour mode 2 and cortical mode 4. […] Furthermore, cortical bone along the endocortical surface was determined with an inner threshold of 529 mg/cm^3. […] For trabecular and cortical bone, content, density and area were determined. […]
(§5) Statistics were calculated using StatView 4.0 software (Abacus Concepts, Inc., Berkeley, Calif.). […]

uterus of OVX rats = experiment: Uterine wet weight in OVX rats
Procedure: as §1, §4, §5

OVX-induced bone loss = experiment: pQCT of the distal femur in OVX rats; assay type: in vivo, Sprague-Dawley female rats; settings: for pQCT cortical content, distal femur / pQCT total density, distal femur: daily gavage 28 days, EE 0.03 mg/kg, LAS 0.1 mg/kg; for OVX-induced bone loss: fully efficacious doses (EE 0.03 mg/kg, LAS 0.1 mg/kg), 28 days
Procedure: as §1, §2, §3

estrogen receptor β = estrogen receptor β (Homo sapiens, UniProt Q92731); settings: previously reported; similar to the binding of estradiol; cited from earlier work
[3] = tested on: uterine cancer cell lines; settings: previously reported; cited from earlier work
breast cancer = settings: previously reported; cited from earlier work
estrogen receptor α = estrogen receptor α (Homo sapiens, UniProt P03372); settings: previously reported; similar to the binding of estradiol; cited from earlier work
Chain of estrogen receptor α (P03372 whole entry): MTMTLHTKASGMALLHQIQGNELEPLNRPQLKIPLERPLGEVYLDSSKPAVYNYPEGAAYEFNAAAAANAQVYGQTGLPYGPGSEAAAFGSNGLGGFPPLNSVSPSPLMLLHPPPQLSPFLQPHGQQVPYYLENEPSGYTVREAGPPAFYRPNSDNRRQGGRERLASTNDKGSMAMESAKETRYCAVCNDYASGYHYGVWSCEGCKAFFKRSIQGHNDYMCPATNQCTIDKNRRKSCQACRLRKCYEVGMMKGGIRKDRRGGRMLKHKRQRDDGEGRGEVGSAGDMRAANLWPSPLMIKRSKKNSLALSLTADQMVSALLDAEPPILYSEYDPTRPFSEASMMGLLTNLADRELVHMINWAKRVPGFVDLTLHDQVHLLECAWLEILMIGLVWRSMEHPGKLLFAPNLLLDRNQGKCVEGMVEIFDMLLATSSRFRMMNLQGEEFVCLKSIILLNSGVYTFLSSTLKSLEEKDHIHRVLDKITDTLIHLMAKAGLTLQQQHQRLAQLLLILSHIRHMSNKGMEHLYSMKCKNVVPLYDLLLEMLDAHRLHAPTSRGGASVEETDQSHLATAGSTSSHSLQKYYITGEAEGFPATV

Chain of estrogen receptor β (Q92731 whole entry): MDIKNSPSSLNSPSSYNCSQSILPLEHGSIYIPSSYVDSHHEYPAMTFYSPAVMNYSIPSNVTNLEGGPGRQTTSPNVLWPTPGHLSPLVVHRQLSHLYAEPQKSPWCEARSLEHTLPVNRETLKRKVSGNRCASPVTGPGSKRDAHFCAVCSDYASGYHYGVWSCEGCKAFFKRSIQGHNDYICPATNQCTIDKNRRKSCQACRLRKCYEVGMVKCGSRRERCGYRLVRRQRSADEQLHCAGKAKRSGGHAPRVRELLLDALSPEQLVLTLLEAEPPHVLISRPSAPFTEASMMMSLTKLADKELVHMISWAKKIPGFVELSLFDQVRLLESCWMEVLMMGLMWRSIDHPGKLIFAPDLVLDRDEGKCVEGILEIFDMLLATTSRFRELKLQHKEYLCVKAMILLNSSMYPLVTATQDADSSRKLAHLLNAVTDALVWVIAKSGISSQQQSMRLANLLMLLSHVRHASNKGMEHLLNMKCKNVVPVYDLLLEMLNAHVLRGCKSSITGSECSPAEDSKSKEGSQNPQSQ

Structure (SMILES)	bone formation rate (BFR/BS) [1]	mineral apposition rate (MAR) [1]	mineralizing surface (MS/BS) [1]	osteoclast number (Oc.N/BS) [1]	osteoclast surface (Oc.S/BS) [1]	total serum cholesterol (TSC) [2]	uterine wet weight (uterus of OVX rats; daily gavage 28 days, EE 0.03 mg/kg, LAS 0.1 mg/kg)	pQCT cortical content, distal femur (OVX-induced bone loss)	pQCT total density, distal femur (OVX-induced bone loss)	OVX-induced bone loss (OVX-induced bone loss)	binding to estrogen receptor β (estrogen receptor β)	proliferation of uterine cancer cell lines in vitro [3]	proliferation of breast cancer in vivo (breast cancer)	total serum cholesterol (TSC) ([2]; tartrate salt)	effect of LAS on the uterine effects of EE on co-administration (uterus of OVX rats; EE 0.03 mg/kg + LAS 0.1 mg/kg, 28 days, tartrate salt)	binding to estrogen receptor α (estrogen receptor α)
C#C[C@]1(O)CC[C@H]2[C@@H]3CCc4cc(O)ccc4[C@H]3CC[C@@]21C [EE, 17α-ethanyl estradiol, reference compound]	completely prevented these changes	completely prevented these changes	completely prevented these changes	completely prevented these changes	completely prevented these changes	completely prevented this increase	maintained the uterine wet weight at the level of sham controls	completely prevented the OVX-induced decrease	completely prevented the OVX-induced decrease	completely prevented OVX-induced bone loss	–	–	–	–	–	–
O=C(O)C(O)C(O)C(=O)O.Oc1ccc2c(c1)CC[C@H](c1ccccc1)[C@@H]2c1ccc(OCCN2CCCC2)cc1 [LAS, (−)-cis-6-phenyl-5-[4-(2-pyrrolidin-1-yl-ethoxy)-phenyl]-5,6,7,8-tetrahydro-naphthalene-2-ol, tartrate salt]	completely prevented these changes	completely prevented these changes	completely prevented these changes	completely prevented these changes	completely prevented these changes	–	–	completely prevented the OVX-induced decrease	completely prevented the OVX-induced decrease	completely prevented OVX-induced bone loss	bound selectively and with high affinity	antagonizes the proliferation	antagonizes the proliferation	prevented the OVX-induced increase in TSC; also recorded: significantly decreased TSC to a level below both sham controls and rats treated with EE	blocked the agonistic effects of EE in the uterus of OVX rats; also recorded: antagonized the uterine hypertrophy effects induced by EE	bound selectively and with high affinity
